One test addresses CDK8 (Homo sapiens, UniProt P49336). In words: LanthaScreen europium kinase binding assay (FRET displacement), CDK8. The method, then:
(§1) FRET Displacement Assay to Measure IC50: The CDK19/CDK8 IC50 values were measured to evaluate activity and to determine CDK19/CDK8 selectivity. The IC50 values of the disclosed compounds was measured using a LanthaScreen™ europium kinase binding assay (ThermoFisher), as described herein.
[…] An aliquot of the cocktail solution (10 μL) was added to each well of a LUMITRAC™ 200:384 flat bottom, non-treated microtiter white plate. The plate was then covered to protect light sensitive reagents and incubated for 30 min at room temperature to equilibrate before addition of any inhibitors.
(§2) A serial dilution of the compounds was titrated into each well using an automated liquid handling Staccato integrated system at the following concentration(s) (Log10 Molar [C]): −4.5, −5.0, −5.5, −6.0, −6.5, −7.0, −7.5, −8.0 so that a complete dose-response could be calculated. A Tecan microplate reader infinite m200 instrument was then used to measure the FRET signal of each individual well using an excitation of 317/20 nm, emission europium of 620/12 nm, and emission kinase tracer of 665/12 nm after a 3 h incubation period at room temperature until steady-state kinetics were achieved.
(§3) Results were performed in duplicate and were repeated a total of 3 independent times before data was normalized to the DMSO control group and IC50 values reported.
(TR-FRET usually uses a lanthanide donor and a delayed reading to cut background.)

In the next test the target is CDK19/CycC (Homo sapiens, UniProt Q9BWU1). As to the kind of experiment: LanthaScreen europium kinase binding assay (FRET displacement), CDK19. The settings on record: for CDK19 Selectivity: CDK19/CDK8 selectivity based on IC50 values; for IC50: his-tagged CDK19/CycC 5 nM, tracer 10 nM, 3 h incubation. The procedure:
as §1
To a kinase buffer cocktail solution (i.e., 5× Kinase Buffer A) was added: purified recombinant his-tagged CDK19/CycC protein (5 nM), ATP-competitive kinase inhibitor scaffold kinase tracer Alexa Fluor® 665 (10 nM), biotin anti-his tag antibody (2 nM), LanthaScreen® europium-streptavidin (2 nM). An aliquot of the cocktail solution (10 μL) was added to each well of a LUMITRAC™ 200:384 flat bottom, non-treated microtiter white plate. The plate was then covered to protect light sensitive reagents and incubated for 30 min at room temperature to equilibrate before addition of any inhibitors.
as §2, §3

These results are taken from patent US20240351996A1, “CDK19-SELECTIVE INHIBITORS, AND METHODS OF USE THEREOF” (CZ BIOHUB SF, LLC, priority 2022, published 2024).

Sequence of CDK19/CycC (Q9BWU1 whole entry): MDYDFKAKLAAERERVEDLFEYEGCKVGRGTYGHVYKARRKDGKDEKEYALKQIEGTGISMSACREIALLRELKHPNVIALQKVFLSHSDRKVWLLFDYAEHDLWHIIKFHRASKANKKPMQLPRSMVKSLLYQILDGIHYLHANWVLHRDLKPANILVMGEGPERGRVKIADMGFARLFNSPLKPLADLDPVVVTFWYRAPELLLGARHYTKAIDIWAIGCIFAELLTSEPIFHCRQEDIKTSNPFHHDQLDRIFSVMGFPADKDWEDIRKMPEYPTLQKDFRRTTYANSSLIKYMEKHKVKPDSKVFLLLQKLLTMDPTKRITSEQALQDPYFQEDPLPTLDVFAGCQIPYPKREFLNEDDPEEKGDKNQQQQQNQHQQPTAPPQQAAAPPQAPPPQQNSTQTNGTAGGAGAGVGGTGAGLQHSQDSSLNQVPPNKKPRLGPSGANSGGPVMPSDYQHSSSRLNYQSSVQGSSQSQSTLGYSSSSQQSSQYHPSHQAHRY
Sequence of CDK19/CycC (P24863 whole entry partner): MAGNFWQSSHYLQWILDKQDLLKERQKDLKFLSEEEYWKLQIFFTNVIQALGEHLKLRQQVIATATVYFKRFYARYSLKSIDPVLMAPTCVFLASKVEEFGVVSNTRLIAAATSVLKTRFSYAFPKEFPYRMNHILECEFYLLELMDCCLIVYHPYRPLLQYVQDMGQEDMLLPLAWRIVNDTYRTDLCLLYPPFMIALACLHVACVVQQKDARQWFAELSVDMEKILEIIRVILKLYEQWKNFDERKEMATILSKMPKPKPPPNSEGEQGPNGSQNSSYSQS
Sequence of CDK8 (P49336 whole entry): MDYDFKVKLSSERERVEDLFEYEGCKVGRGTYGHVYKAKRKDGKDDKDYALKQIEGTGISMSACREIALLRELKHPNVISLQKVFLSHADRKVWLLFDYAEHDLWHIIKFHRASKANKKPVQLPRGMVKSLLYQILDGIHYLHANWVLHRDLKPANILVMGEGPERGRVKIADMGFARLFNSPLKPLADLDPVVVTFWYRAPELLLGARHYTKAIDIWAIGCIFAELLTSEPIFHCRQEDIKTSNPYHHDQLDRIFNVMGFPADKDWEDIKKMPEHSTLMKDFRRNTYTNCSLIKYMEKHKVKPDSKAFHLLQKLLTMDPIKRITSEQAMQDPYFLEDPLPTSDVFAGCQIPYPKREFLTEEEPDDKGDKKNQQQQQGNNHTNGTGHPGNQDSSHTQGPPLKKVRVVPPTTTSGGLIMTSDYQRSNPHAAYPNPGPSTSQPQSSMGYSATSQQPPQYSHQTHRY
Sequence of CDK8 (P24863 whole entry partner): as the sequence (P24863 whole entry partner) above

A word on the IC50: it is the concentration that gives 50% inhibition. Low values mean greater potency, high ones weaker potency. For `COc1cnccc1Nc1cnc(Nc2ccc(CC(C)C)cc2)nc1C` [Compound A25], on CDK8, the IC50 was determined as 15 nM. Moreover, on CDK19/CycC, the “CDK19 Selectivity” value came to 0.9 and the half-inhibitory concentration (IC50) was determined as 16 nM.

Take `Cc1cnccc1Nc1cnc(Nc2cccc(CC(C)C)c2)nc1` [Compound A32]: the IC50 on CDK8 was found to be 1320 nM. Also, at CDK19/CycC, the “CDK19 Selectivity” value is given as 3.5 and the half-inhibitory concentration (IC50) is 378 nM.

On to `CC(C)Cc1ccc(Nc2ncc(C(F)(F)c3ccncc3)cn2)cc1` [Compound A139], for which the IC50 at CDK8 worked out at 18 nM. For the same compound, on CDK19/CycC, the “CDK19 Selectivity” value came to 3.2 and the half-maximal inhibitory concentration (IC50) came out at 5.5 nM.

As to `Cc1ccc(-c2ccc(Nc3ccc(CC(C)C)cc3)nc2)cc1` [Compound A77], the IC50 on CDK8 turned out to be 3760 nM; on CDK19/CycC it was 1080 nM. Also, on CDK19/CycC, the “CDK19 Selectivity” value was found to be 3.5.

For `CC(C)Cc1cccc(Nc2ncc(Nc3ccnc(C(F)(F)F)c3)cn2)c1` [Compound A35], the IC50 on CDK8 and at CDK19/CycC was 10000 nM throughout.

Compound `CC(C)Cc1ccc(Nc2ncc(-c3cccnc3)cn2)cc1` [Compound A87] had an IC50 on CDK8 of 198 nM. In addition, at CDK19/CycC, the “CDK19 Selectivity” value worked out at 2.4 and the IC50 worked out at 84 nM.

For `CC(C)Cc1ccc(Nc2ncc(-c3ccc(C#N)cn3)cn2)cc1` [Compound A95], the IC50 on CDK8 and on CDK19/CycC was 10000 nM throughout.

Consider `Cc1cc(Nc2cnc(Nc3cccc(CC(C)C)c3)nc2)cc(C)n1` [Compound A30], for which the IC50 at CDK8 and at CDK19/CycC was 10000 nM throughout.

Take `CC(C)Cc1ccc(Nc2ncc(Nc3ccncc3Cl)cn2)cc1` [Compound A57]: on CDK8, the IC50 is 3 nM. Moreover, on CDK19/CycC, the “CDK19 Selectivity” value was 2 and the IC50 was at most 2.5 nM.

`Cc1cncc(F)c1Nc1cnc(Nc2ccc(CC(C)C)cc2)nc1` [Compound A62] showed an IC50 at CDK8 of 3 nM. At CDK19/CycC, the “CDK19 Selectivity” value was determined as 1.5 and the IC50 is at most 2.5 nM.

Turning to `Cc1cc(C)cc(-c2cnc(Nc3ccc(CC(C)C)cc3)nc2)c1` [Compound A88], the IC50 on CDK8 stood at 1490 nM; on CDK19/CycC, 557 nM. On CDK19/CycC, the “CDK19 Selectivity” value amounted to 2.7.

At CDK8, `Cc1cnccc1Nc1cnc(Nc2ccc(C3CCCCC3)cc2)nc1` [Compound A148] registered an IC50 of 17 nM. Besides, on CDK19/CycC, the “CDK19 Selectivity” value was determined as 1 and the IC50 is 18 nM.

At CDK8, `COc1cnccc1Nc1cnc(Nc2ccc(CC(C)C)cc2)nc1` [Compound A50] gave an IC50 of 16 nM. Also, on CDK19/CycC, the “CDK19 Selectivity” value is at least 6 and the IC50 is at most 2.5 nM.

Compound `Cc1cnccc1Nc1cnc(Nc2ccc(OC(C)C)cc2F)nc1` [Compound A162] gave an IC50 on CDK8 of 362 nM. Further, at CDK19/CycC, the “CDK19 Selectivity” value worked out at 4 and the IC50 turned out to be 89 nM.

With `CC(C)Cc1ccc(Nc2ncc(-c3cc(C#N)ccn3)cn2)cc1` [Compound A96], the figures for the IC50 on CDK8 and on CDK19/CycC were 10000 nM and 1110 nM, respectively. Besides, the “CDK19 Selectivity” value at CDK19/CycC turned out to be 9.

For `Cc1cnc2ccccc2c1Nc1cnc(Nc2ccc(CC(C)C)cc2)nc1` [Compound A12], at CDK8, the IC50 was determined as 34 nM. At CDK19/CycC, the “CDK19 Selectivity” value turned out to be 0.9 and the IC50 was 38 nM.

Compound `CC(C)Cc1ccc(Nc2ncc(-c3ccncc3)cn2)cc1` [Compound A99] yielded an IC50 at CDK8 of 10000 nM. At CDK19/CycC, the “CDK19 Selectivity” value worked out at 5.6 and the IC50 worked out at 1800 nM.

Regarding `CC(C)Cc1ccc(Nc2ncc(Nc3cncnc3)cn2)cc1` [Compound A63], the 50% inhibitory concentration (IC50) at CDK8 is 7790 nM. Further, on CDK19/CycC, the “CDK19 Selectivity” value turned out to be 4.8 and the IC50 is 1600 nM.

At CDK8, `Cc1cnccc1Nc1cnc(Nc2ccc(CC(C)C)cc2F)nc1` [Compound A59] came in with an IC50 of 23 nM. Moreover, at CDK19/CycC, the “CDK19 Selectivity” value is given as 2 and the IC50 amounted to 11 nM.

On to `CC(C)Cc1ccc(Nc2ncc(C(F)(F)c3ccncc3)cn2)cc1` [Compound A161], for which the IC50 on CDK8 stood at 20 nM. Besides, on CDK19/CycC, the “CDK19 Selectivity” value is on record as 2 and the IC50 is 9 nM.
